Experimental findings from EPA's ToxRefDB 2 are described below.

Some results are limits rather than exact numbers.

One may read the LOAEL as the lowest tested level that showed an adverse finding. One may read the NOAEL as the highest tested level that showed no adverse finding.

For data set [1], the system named is rat. The note with it: Combined chronic toxicity/carcinogenicity, sprague dawley, Oral, Feed, dose end: 2 year, group: systemic.
Data set [2] concerns rat. The following applies: Peri- and post-natal toxicity study (Segment III), sprague dawley, Oral, Gavage/Intubation, dose end: 43 PND.
Data set [3] relates to rat. The following applies: Developmental neurotoxicity study; sprague dawley; Oral; Gavage/Intubation; dose end: 42 PND; group: cannot be grouped; developmental / offspring survival late / [other] / [other].
For data set [4], the system named is rabbit. The note with it: Prenatal developmental toxicity study, new zealand white, Oral, Gavage/Intubation, dose end: 27 GD.
Data set [5] has as its system rat. The note with it: Reproduction/developmental toxicity screening test, sprague dawley, Dermal, Topical, dose end: 1 generation.
The test system of data set [6] is rabbit. The following applies: Subchronic dermal toxicity, new zealand white, Topical, dose end: 13 week, group: systemic, systemic / pathology gross / skin / scabbing + systemic / pathology microscopic / skin / inflammation + systemic / in life observation / ….
In data set [7] the test system is rat. The note with it: Prenatal developmental toxicity study, other, Oral, Gavage/Intubation, dose end: 15 GD.
The next data set deals with dog. The following applies: Chronic toxicity, beagle, Oral, Feed, dose end: 52 week, group: systemic.
For data set [8], the system named is mouse. The note with it: Carcinogenicity, cd1, Oral, Feed, dose end: 24 month, group: systemic.
For data set [9], the system named is rat. The following applies: Subchronic oral toxicity in rodents, sprague dawley, Feed, dose end: 90 day, group: systemic.
Data set [10] relates to rat. The following applies: Combined chronic toxicity/carcinogenicity, sprague dawley, Oral, Feed, dose end: 24 month, group: systemic.
Data set [11] deals with rat. The note with it: Chronic toxicity, sprague dawley, Oral, Feed, dose end: 2 year, group: systemic.
Data set [12] concerns rat. The note with it: Prenatal developmental toxicity study, wistar, Oral, Gavage/Intubation, dose end: 20 GD.
The subject of data set [13] is rat. The following applies: Prenatal developmental toxicity study, wistar, Oral, Feed, dose end: 21 GD.
In data set [14] the test system is mouse. The following applies: Subchronic oral toxicity in rodents, b6c3f1, Feed, dose end: 13 week, group: systemic.
Data set [15] concerns rat. The note with it: Subchronic oral toxicity in rodents, fischer, Feed, dose end: 13 week.
The mark [16] stands for this setting: systemic / in life observation / body weight / body weight.
Where [17] appears, read: systemic / pathology microscopic / preputial gland / atrophy.
The mark [18] stands for this setting: group: developmental, developmental / developmental landmark / vaginal opening / vaginal opening.
Setting [19] is: group: maternal, reproductive / reproductive performance / estrous cycle / [other] + reproductive / reproductive performance / estrous cycle / abnormal.
Setting [20] is: group: parental, systemic / organ weight / adrenal gland / absolute.
Where [21] appears, read: group: developmental, systemic / in life observation / body weight / fetal weight.
Setting [22] is: group: maternal, systemic / in life observation / body weight / body weight gain + systemic / in life observation / food consumption / food consumption + ….
[23] abbreviates: group: offspring, systemic / in life observation / body weight / offspring (pup) weight + systemic / in life observation / clinical signs / desquamation + ….
Setting [24] is: group: parental, systemic / in life observation / body weight / body weight + systemic / in life observation / body weight / body weight gain + systemic / in….
[25] abbreviates: group: parental, systemic / in life observation / clinical signs / desquamation + systemic / in life observation / clinical signs / erythema + systemic / ….
Where [26] appears, read: group: developmental, developmental / developmental malformation / bone / unossified.
Where [27] appears, read: group: maternal, systemic / in life observation / body weight / body weight + systemic / in life observation / body weight / body weight gain + systemic / ….
Where [28] appears, read: systemic / pathology microscopic / prostate / hyperplasia.
Setting [29] is: systemic / pathology microscopic / liver / cytomegaly.
Setting [30] is: systemic / pathology microscopic / liver / cytomegaly + systemic / pathology microscopic / lung / adenoma + systemic / in life observation….
Setting [31] is: systemic / clinical chemistry / calcium / calcium + systemic / organ weight / heart / relative to body weight.
Where [32] appears, read: systemic / in life observation / body weight / body weight + systemic / in life observation / body weight / body weight gain.
The mark [33] stands for this setting: systemic / pathology microscopic / pituitary gland / adenoma/carcinoma combined + systemic / in life observation / body weight / body weight….
The mark [34] stands for this setting: group: developmental, developmental / developmental malformation / great vessels / [other] + developmental / developmental malformation / bone / fused + ….
Setting [35] is: group: maternal, reproductive / offspring survival early / litter viability other / total litter loss + systemic / in life observation / body weight / body ….
Setting [36] is: group: maternal, reproductive / reproductive performance / postimplantation loss / postimplantation loss + reproductive / reproductive performance / ….
The mark [37] stands for this setting: systemic / organ weight / liver / relative to body weight.
Where [38] appears, read: group: maternal, reproductive / reproductive performance / estrous cycle / abnormal.
The mark [39] stands for this setting: group: systemic, systemic / hematology / mean corpuscular (cell) volume (mcv) / mean corpuscular (cell) volume (mcv) + systemic / hematology / mean ….
The mark [40] stands for this setting: group: systemic, systemic / pathology microscopic / kidney / nephropathy.

`C#C[C@]1(O)CC[C@H]2[C@@H]3CCc4cc(O)ccc4[C@H]3CC[C@@]21C` [17alpha-Ethinylestradiol]: the LEL stood at 0.00012 mg/kg/day with rat [1] (setting [16]), 0.005 mg/kg/day in the data set on rat [2] (setting [18]), 0.005 mg/kg/day in the data set with rat [2] (setting [19]) and 0.0025 mg/kg/day with rat [2] (setting [20]). In addition, the NEL was under 0.00012 mg/kg/day in the data set with rat [1] (setting [16]), 0.0025 mg/kg/day with rat [2] (setting [18]), 0.0025 mg/kg/day in the data set with rat [2] (setting [19]) and under 0.0025 mg/kg/day in the data set on rat [2] (setting [20]). The LOAEL is 0.00021 mg/kg/day in the data set on rat [1] (setting [17]), over 0.005 mg/kg/day in the data set with rat [2] (setting [18]), over 0.005 mg/kg/day in the data set on rat [2] (setting [19]) and over 0.005 mg/kg/day in the data set on rat [2] (setting [20]). Besides, the NOAEL was under 0.00021 mg/kg/day with rat [1] (setting [17]), at least 0.005 mg/kg/day in the data set on rat [2] (setting [18]), at least 0.005 mg/kg/day in the data set on rat [2] (setting [19]) and at least 0.005 mg/kg/day in the data set with rat [2] (setting [20]).
In the data set on rat [3], `O=C([O-])c1ccccc1O.[Na+]` [Sodium salicylate] had an LEL of 12.5 mg/kg/day, an LOAEL of over 150 mg/kg/day, an NEL of 4.2 mg/kg/day and an NOAEL of at least 150 mg/kg/day.
With `ClC=CC[N+]12CN3CN(CN(C3)C1)C2.[Cl-]` [N-(3-Chloroallyl)hexaminium chloride], the LEL worked out at 16 mg/kg/day in the data set on rabbit [4] (setting [21]); 16 mg/kg/day in the data set with rabbit [4] (setting [22]); 225 mg/kg/day with rat [5] (setting [23]); 75 mg/kg/day with rat [5] (setting [25]); 50 mg/kg/day in the data set with rabbit [6]. Further, the LOAEL in the data set with rabbit [4] (setting [21]) was 16 mg/kg/day; in the data set on rabbit [4] (setting [22]), 16 mg/kg/day; with rat [5] (setting [23]), over 750 mg/kg/day; in the data set on rat [5] (setting [24]), over 750 mg/kg/day; in the data set with rabbit [6] it was over 1000 mg/kg/day. Moreover, the NEL with rabbit [4] (setting [21]) is 5.1 mg/kg/day; with rabbit [4] (setting [22]), 5.1 mg/kg/day; in the data set on rat [5] (group: offspring, systemic / in life observation / body weight / offspring (pup) weight), 75 mg/kg/day; in the data set with rat [5] (setting [25]), under 75 mg/kg/day; with rabbit [6] it was under 50 mg/kg/day. The NOAEL is 5.1 mg/kg/day in the data set on rabbit [4] (setting [21]); 5.1 mg/kg/day in the data set with rabbit [4] (setting [22]); at least 750 mg/kg/day with rat [5] (setting [23]); at least 750 mg/kg/day in the data set on rat [5] (setting [24]); at least 1000 mg/kg/day in the data set on rabbit [6].
Regarding `COc1nc(C)nc(NC(=O)NS(=O)(=O)c2ccccc2OCCCl)n1` [Triasulfuron], the LEL stood at 100 mg/kg/day in the data set with rat [7] (setting [26]); 300 mg/kg/day with rat [7] (group: maternal, systemic / in life observation / body weight / body weight + systemic / in life observation / body weight / body weight gain + systemic / in…); 2.5 mg/kg/day with dog (setting [28]); 129 mg/kg/day in the data set with mouse [8] (setting [29]); 10 mg/kg/day in the data set on rat [9] (setting [31]); 42.9 mg/kg/day in the data set with rat [10] (systemic / in life observation / clinical signs / palpable mass). The LOAEL with rat [7] (setting [26]) was determined as 900 mg/kg/day; in the data set on rat [7] (group: maternal, systemic / in life observation / body weight / body weight + systemic / in life observation / body weight / body weight gain), 300 mg/kg/day; with dog (setting [28]), 25 mg/kg/day; in the data set on mouse [8] (setting [29]) it was 129 mg/kg/day; in the data set on rat [9] (systemic / in life observation / body weight / body weight + systemic / in life observation / food consumption / food consumption), 500 mg/kg/day; in the data set on rat [10] (setting [32]) it was 221 mg/kg/day. Besides, the NEL in the data set with rat [7] (setting [26]) was under 100 mg/kg/day; in the data set on rat [7] (setting [27]), 100 mg/kg/day; in the data set on dog (setting [28]) it was under 2.5 mg/kg/day; in the data set on mouse [8] (setting [30]), 1.2 mg/kg/day; in the data set on rat [9] (setting [31]) it was under 10 mg/kg/day; with rat [10] (systemic / in life observation / clinical signs / palpable mass + systemic / in life observation / body weight / body weight + systemic / in…), 0.4 mg/kg/day. Further, the NOAEL amounted to 300 mg/kg/day in the data set on rat [7] (group: developmental, developmental / developmental malformation / bone / unossified + systemic / in life observation / body weight / fetal weight); 100 mg/kg/day in the data set with rat [7] (setting [27]); 2.5 mg/kg/day with dog (systemic / pathology microscopic / prostate / hyperplasia + systemic / hematology / erythrocyte (rbc) count differential / erythrocyte (rbc…); 1.2 mg/kg/day in the data set on mouse [8] (setting [30]); 10 mg/kg/day with rat [9] (systemic / in life observation / body weight / body weight + systemic / in life observation / food consumption / food consumption + systemic…); 32.1 mg/kg/day in the data set on rat [10] (setting [32]).
Take `O=c1c(-c2ccc(O)cc2)coc2cc(O)cc(O)c12` [Genistein]: the NEL with rat [11] (systemic / organ weight / pituitary gland / absolute + systemic / organ weight / pituitary gland / relative to body weight) was 0.25 mg/kg/day; in the data set with rat [12] (setting [34]), 20 mg/kg/day; with rat [12] (setting [35]) it was 150 mg/kg/day; in the data set on rat [13] (setting [21]), 100 mg/kg/day; in the data set with rat [13] (setting [36]), 100 mg/kg/day. The LEL with rat [11] (systemic / organ weight / pituitary gland / absolute + systemic / organ weight / pituitary gland / relative to body weight + systemic / …) was found to be 5 mg/kg/day; in the data set with rat [12] (group: developmental, developmental / developmental malformation / great vessels / [other]), 150 mg/kg/day; in the data set with rat [12] (setting [35]) it was 1000 mg/kg/day; with rat [13] (setting [21]), 500 mg/kg/day; in the data set with rat [13] (setting [36]), 500 mg/kg/day. In addition, the LOAEL is over 25 mg/kg/day with rat [11] (setting [33]); over 1000 mg/kg/day with rat [12] (setting [34]); over 1000 mg/kg/day in the data set with rat [12] (setting [35]); over 500 mg/kg/day with rat [13] (setting [21]); over 500 mg/kg/day in the data set on rat [13] (setting [36]). Further, the NOAEL in the data set with rat [11] (setting [33]) is at least 25 mg/kg/day; with rat [12] (setting [34]), at least 1000 mg/kg/day; with rat [12] (setting [35]), at least 1000 mg/kg/day; in the data set on rat [13] (setting [21]) it was at least 500 mg/kg/day; in the data set with rat [13] (setting [36]), at least 500 mg/kg/day.
`Cc1cccc([N+](=O)[O-])c1` [3-Nitrotoluene]: the LOAEL was 743 mg/kg/day in the data set with mouse [14] (systemic / in life observation / body weight / body weight gain), over 638 mg/kg/day in the data set on rat [15] (setting [38]) and 336 mg/kg/day in the data set with rat [15] (setting [39]). The NOAEL in the data set with mouse [14] (systemic / in life observation / body weight / body weight gain + systemic / in life observation / food consumption / food consumption + …) is 398 mg/kg/day; in the data set on rat [15] (setting [38]), at least 638 mg/kg/day; in the data set on rat [15] (setting [39]), 172 mg/kg/day. Also, the LEL turned out to be 114 mg/kg/day in the data set with mouse [14] (setting [37]), 336 mg/kg/day in the data set with rat [15] (setting [38]) and 46 mg/kg/day with rat [15] (setting [40]). Besides, the NEL in the data set with mouse [14] (setting [37]) is under 114 mg/kg/day; in the data set with rat [15] (setting [38]), 172 mg/kg/day; with rat [15] (setting [40]), under 46 mg/kg/day.
